Patent publication US8227515B2, “Use of hydroxamic acid derivatives for the preparation of anti-tumour medicaments” (Italfarmaco S.p.A., priority 2003, dated 2012)
Counter-ions that a name gives are not always drawn.

What was measured:
[1] = system: A549 (pulmonary carcinoma); test: Tritiated thymidine incorporation, tumour cell growth inhibition; format: cell-based; conditions: Homo sapiens, 48 hours with compound, read-out: IC50 (50% cell growth inhibition)
Description: (§1) The anti-tumour effect of the compound of example 12 of EP 901465, 4-[6-(diethylaminomethyl)naphth-2-ylmethyloxycarbamoyl)] benzohydroxamic acid hydrochloride (ITF 2357), was tested in vitro by measuring the capacity of the compound to inhibit the growth of tumour cell lines of different histotype deriving from both solid tumours and haematological tumours. The cell lines used were: A549 (pulmonary carcinoma), MDA-MB435 (breast carcinoma) and KG-1 (myeloid leukaemia).
(§2) A549 and MDA-MB435 cells (respectively grown in E-MEM and D-MEM culture medium, supplemented with 10% of fetal calf serum) were seeded on 96 wells-flat bottom-plates (5000 cells/well) and allowed to adhere for 4 hours at 37° C. under 5% CO2 atmosphere. Thereafter ITF 2357 at various doses was added to each well (4 replicates). […]
(§3) […] At the end the cells were collected by a cell harvester and the radioactivity contained in each sample which is directly proportionated to DNA synthesis and therefore to cell proliferation was measured by a liquid scintillation beta counter.
(§4) The effect of different doses of ITF 2357 was measured as percent of inhibition of radioactivity incorporation compared with untreated control cells. […]

[2] = system: MDA-MB435 (breast carcinoma); test: as above; format: cell-based; conditions: Homo sapiens, MDA-MB-435, 48 hours with compound, read-out: IC50 (50% cell growth inhibition)
Description: as §1, §2, §3, §4

KG-1 (myeloid leukaemia) = test: as above; format: cell-based; conditions: 48 hours with compound, read-out: IC50 (50% cell growth inhibition)
Description: as §1
A liquid scintillation beta counter was used for measurement of the radioactivity contained in each sample, which is directly proportional to DNA synthesis and therefore to cell proliferation. KG-1 cells, grown in RPMI 1640 culture medium, supplemented with 5% fetal calf serum, were seeded in 96 wells-flat bottom-plates (250000 cells/well). ITF 2357 at various doses was immediately added and after 36 hours tritiated thymidine was added to each well (1 μCi/well) and left therein for the following 12 hours. At the end the cells were collected by a cell harvester and the radioactivity contained in each sample which is directly proportionated to DNA synthesis and therefore to cell proliferation was measured by a liquid scintillation beta counter.
as §4

Anad (Melanoma) = test: Sulforhodamine B viable cell assay, 72 hours; format: cell-based; conditions: Homo sapiens
Description: (§5) Cell lines derived from human solid tumours of different histotype and stabilised in vitro were used in the following experiment. In particular, three cell lines from head and neck tumours (KB, Ca127 and Hep2), two cell lines derived from colon carcinomas (HT-29 and LoVo) and four cell lines derived from melanomas (Colo38, Pes41, Pes43 and Anad) were studied.
(§6) The cells were grown according to conventional methods in flasks containing synthetic culture medium added with fetal serum, at 37° C. under 5% CO2 atmosphere, then seeded in 96 wells plates and allowed to adhere for some hours. ITF 2357 was added in triplicate at increasing doses to each well and the cells were incubated for further 72 hours. Viable cells were labelled by dyeing with sulforhodamine B and their amount was determined by spectrophotometric evaluation of the dye content in each well. The effect of ITF 2357 was calculated as percentage of inhibition, at each concentration, of the dye incorporation in wells containing ITF 2357 compared with control wells (cells without drug). IC50 values of ITF 2357 were calculated by Software Calcusyn (Biosoft) according to dose-response curves.

Cal27 (Head-neck) = test: Sulforhodamine B viable cell assay, 72 hours; format: cell-based; conditions: Homo sapiens, CAL-27
Description: as §5, §6

Colo38 (Melanoma) = test: Sulforhodamine B viable cell assay, 72 hours; format: cell-based; conditions: Homo sapiens
Description: as §5, §6

HT-29 (Colon carcinoma) = test: Sulforhodamine B viable cell assay, 72 hours; format: cell-based; conditions: Homo sapiens
Description: as §5, §6

Hep-2 (Head-neck) = test: Sulforhodamine B viable cell assay, 72 hours; format: cell-based; conditions: Homo sapiens
Description: as §5, §6

KB (Head-neck) = test: Sulforhodamine B viable cell assay, 72 hours; format: cell-based; conditions: Homo sapiens
Description: as §5, §6

LoVo (Colon carcinoma) = test: Sulforhodamine B viable cell assay, 72 hours; format: cell-based; conditions: Homo sapiens
Description: as §5, §6

Pes41 (Melanoma) = test: Sulforhodamine B viable cell assay, 72 hours; format: cell-based; conditions: Homo sapiens
Description: as §5, §6

Pes43 (Melanoma) = test: Sulforhodamine B viable cell assay, 72 hours; format: cell-based; conditions: Homo sapiens
Description: as §5, §6

murine melanoma B16-BL6 = test: Growth of subcutaneous murine melanoma B16-BL6 in vivo; set-up: species or system mouse C57BL/6; conditions: female C57BL/6 mice, oral, daily 6 days a week
Excerpt: The anti-tumour effect of ITF 2357 was studied measuring the capacity of the compound to reduce the growth of the murine melanoma B16-BL6. B16-BL6 tumour is a highly metastatic variant (Sciumbata T. et al. Invasion and Metastasis 1996; 16: 132-143) of the native tumour B16 and it grows subcutaneously in the syngenic mouse C57BL/6 (Gutman M et al. Cancer Biother. 1994; 9(2): 163-170). B16-BL6 tumour cells were inoculated subcutaneously in female C57BL/6 mice (10 animals/group, weight 20-22 grams) at the dose of 2×10^5 cells/mouse. ITF 2357 dissolved in water was administered orally, at the indicated doses, 10 minutes before the inoculum of the tumour cells and then daily for 6 days a week. The tumour growth was expressed as tumour weight, measuring twice a week, by means of a calibre, the two perpendicular diameters of the nodules. The weight was calculated according to the formula: (diameter 1×diameter 2)^2/2 as described in Giavazzi R. et al. Cancer Res. 1986; 46: 1928-1933.

IC50 [1]: 495 nM
IC50 [2]: 73 nM
IC50 (KG-1 (myeloid leukaemia)): 552 nM
IC50 (Anad (Melanoma)): 5700 nM
IC50 (Colo38 (Melanoma)): 2380 nM
IC50 (HT-29 (Colon carcinoma)): 700 nM
IC50 (KB (Head-neck)): 640 nM
IC50 (LoVo (Colon carcinoma)): 2500 nM
IC50 (Pes41 (Melanoma)): 1600 nM
IC50 (Pes43 (Melanoma)): 1400 nM
SMILES: CCN(CC)Cc1ccc2cc(COC(=O)Nc3ccc(C(=O)NO)cc3)ccc2c1 [ITF 2357, 4-[6-(diethylaminomethyl)naphth-2-ylmethyloxycarbamoyl)] benzohydroxamic acid hydrochloride]
IC50 (Cal27 (Head-neck)): 3400 nM
IC50 (Hep-2 (Head-neck)): 1000 nM
effect on the tumour growth (murine melanoma B16-BL6): dose-dependent inhibitory effect
reduction of the volume of the tumoural nodule (murine melanoma B16-BL6; after 15 days of treatment): about 50%
